Laboratory results from ChEMBL document CHEMBL1909046, “DrugMatrix in vitro pharmacology data”.

How the values were obtained:
[1] = DRUGMATRIX: Sodium/nucleoside co-transporter radioligand binding (ligand: nitrobenzylthioinosine); type: cell membranes, Cavia porcellus, Dunkin-Hartley, Cerebral cortex, Membrane; details: Not Active = under 50% inhibition at 10 µM
B2 bradykinin receptor = target: T1, B2 bradykinin receptor (Homo sapiens, UniProt P30411); type: cell membranes, Membrane; details: chem-1; further: in other assays of this panel Not Active means under 50% inhibition at 10 µM
T1 sequence (P30411 whole entry): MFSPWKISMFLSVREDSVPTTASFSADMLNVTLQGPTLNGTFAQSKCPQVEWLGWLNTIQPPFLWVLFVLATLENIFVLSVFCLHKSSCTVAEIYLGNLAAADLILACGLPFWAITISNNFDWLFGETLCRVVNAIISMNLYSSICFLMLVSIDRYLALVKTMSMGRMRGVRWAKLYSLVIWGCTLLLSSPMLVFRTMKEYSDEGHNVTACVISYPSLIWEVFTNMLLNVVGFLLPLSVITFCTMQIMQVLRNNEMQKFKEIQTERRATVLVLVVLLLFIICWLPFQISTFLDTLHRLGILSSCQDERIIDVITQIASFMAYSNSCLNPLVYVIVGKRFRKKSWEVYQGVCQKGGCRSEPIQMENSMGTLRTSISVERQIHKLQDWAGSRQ

Calcitonin receptor = target: T2, Calcitonin receptor (Homo sapiens, UniProt P30988); type: cell membranes, Membrane; details: t47d; further: in other assays of this panel Not Active means under 50% inhibition at 10 µM
T2 sequence (P30988 whole entry): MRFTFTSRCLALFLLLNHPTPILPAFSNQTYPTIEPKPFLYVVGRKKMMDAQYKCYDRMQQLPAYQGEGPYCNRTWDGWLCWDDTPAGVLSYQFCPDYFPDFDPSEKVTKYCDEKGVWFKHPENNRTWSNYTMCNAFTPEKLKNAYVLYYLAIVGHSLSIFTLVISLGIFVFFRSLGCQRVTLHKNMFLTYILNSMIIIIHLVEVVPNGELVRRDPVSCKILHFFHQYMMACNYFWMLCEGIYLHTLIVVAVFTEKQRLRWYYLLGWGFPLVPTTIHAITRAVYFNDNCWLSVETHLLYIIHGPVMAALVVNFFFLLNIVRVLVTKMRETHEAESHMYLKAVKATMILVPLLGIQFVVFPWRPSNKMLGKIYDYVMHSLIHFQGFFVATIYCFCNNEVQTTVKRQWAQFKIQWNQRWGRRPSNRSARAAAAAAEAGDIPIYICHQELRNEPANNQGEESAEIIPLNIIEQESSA

[2] = DRUGMATRIX: Serotonin (5-Hydroxytryptamine) 5-HT3 radioligand binding (ligand: [3H] GR-65630); type: cell membranes, Membrane; details: hek293; Not Active = under 50% inhibition at 10 µM
[3] = target: Sigma non-opioid intracellular receptor 1 (Homo sapiens, UniProt Q99720); assay: DRUGMATRIX: Sigma1 radioligand binding (ligand: [3H] Haloperidol); type: cell membranes, Jurkat, Membrane; details: jurkat; Not Active = under 50% inhibition at 10 µM
Chain of Sigma non-opioid intracellular receptor 1 (Q99720 whole entry): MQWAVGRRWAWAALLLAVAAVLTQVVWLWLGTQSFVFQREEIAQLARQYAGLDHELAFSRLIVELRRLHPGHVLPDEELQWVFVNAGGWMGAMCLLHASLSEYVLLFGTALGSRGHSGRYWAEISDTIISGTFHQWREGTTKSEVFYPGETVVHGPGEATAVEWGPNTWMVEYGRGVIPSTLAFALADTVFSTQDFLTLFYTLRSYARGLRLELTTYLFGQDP

Vasopressin V1a receptor = Vasopressin V1a receptor (Homo sapiens, UniProt P37288); type: cell membranes, Membrane; details: hek293; further: in other assays of this panel Not Active means under 50% inhibition at 10 µM
Chain of Vasopressin V1a receptor (P37288 whole entry): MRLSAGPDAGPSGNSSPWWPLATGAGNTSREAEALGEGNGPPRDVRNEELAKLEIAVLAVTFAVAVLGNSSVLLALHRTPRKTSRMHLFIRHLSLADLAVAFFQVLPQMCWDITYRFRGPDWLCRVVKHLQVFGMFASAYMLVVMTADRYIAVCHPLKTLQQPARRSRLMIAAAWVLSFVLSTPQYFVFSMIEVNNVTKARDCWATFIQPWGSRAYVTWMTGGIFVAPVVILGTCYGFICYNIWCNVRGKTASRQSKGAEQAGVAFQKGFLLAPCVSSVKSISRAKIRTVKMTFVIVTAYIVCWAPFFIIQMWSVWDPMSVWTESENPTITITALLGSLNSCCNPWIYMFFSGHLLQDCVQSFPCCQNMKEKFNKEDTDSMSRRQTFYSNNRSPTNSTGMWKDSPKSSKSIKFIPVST

[4] = DRUGMATRIX: Phosphodiesterase PDE3 enzyme inhibition (substrate: [3H]cAMP + cAMP); type: tissue-based, Homo sapiens; details: platelet; Not Active = under 50% inhibition at 10 µM
Estrogen receptor = target: T3, Estrogen receptor (Homo sapiens, UniProt P03372); details: sf9; further: in other assays of this panel Not Active means under 50% inhibition at 10 µM
T3 sequence (P03372 whole entry): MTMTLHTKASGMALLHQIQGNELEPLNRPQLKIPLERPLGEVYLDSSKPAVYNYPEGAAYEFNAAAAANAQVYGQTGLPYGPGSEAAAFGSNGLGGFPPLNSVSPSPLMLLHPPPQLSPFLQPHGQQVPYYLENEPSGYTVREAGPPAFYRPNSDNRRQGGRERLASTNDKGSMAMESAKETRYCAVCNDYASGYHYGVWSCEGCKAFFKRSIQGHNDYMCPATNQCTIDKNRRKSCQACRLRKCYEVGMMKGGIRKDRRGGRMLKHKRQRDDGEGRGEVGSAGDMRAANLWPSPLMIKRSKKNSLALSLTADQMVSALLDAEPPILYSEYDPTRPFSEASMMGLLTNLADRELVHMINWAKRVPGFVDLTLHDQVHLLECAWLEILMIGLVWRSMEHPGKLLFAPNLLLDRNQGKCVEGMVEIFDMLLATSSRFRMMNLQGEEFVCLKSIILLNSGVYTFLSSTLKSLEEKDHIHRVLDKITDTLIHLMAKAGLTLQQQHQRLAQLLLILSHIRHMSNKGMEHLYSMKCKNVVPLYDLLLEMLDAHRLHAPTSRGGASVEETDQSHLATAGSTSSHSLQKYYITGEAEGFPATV

CCCNC(C)C(=O)Nc1ccccc1C (configuration not stated) [PRILOCAINE]
Not Active: IC50 [1] | Ki [1] | IC50 (B2 bradykinin receptor) | IC50 (Calcitonin receptor) | IC50 [2] | Ki [2] | IC50 [3] | IC50 (Vasopressin V1a receptor) | IC50 [4] | Ki [4] | IC50 (Estrogen receptor)

CCN(CC)CCCC(C)Nc1c2ccc(Cl)cc2nc2ccc(OC)cc12 (configuration not stated) [QUINACRINE]
Not Active: IC50 [1] | Ki [1] | IC50 (B2 bradykinin receptor) | IC50 (Calcitonin receptor) | IC50 [2] | Ki [2] | IC50 [3] | IC50 (Vasopressin V1a receptor) | IC50 [4] | Ki [4] | IC50 (Estrogen receptor)

C[C@]12C=CC(=O)C=C1CC[C@H]1[C@@H]3C[C@@H](O)[C@](O)(C(=O)CO)[C@@]3(C)C[C@H](O)[C@@]12F [TRIAMCINOLONE]
Not Active: IC50 [1] | Ki [1] | IC50 (B2 bradykinin receptor) | IC50 (Calcitonin receptor) | IC50 [2] | Ki [2] | IC50 [3] | IC50 (Vasopressin V1a receptor) | IC50 [4] | Ki [4] | IC50 (Estrogen receptor)

CC[C@]1(O)C[C@@H]2CN(CCc3c([nH]c4ccccc34)[C@@](C(=O)OC)(c3cc4c(cc3OC)N(C)[C@H]3[C@@](O)(C(N)=O)[C@H](O)[C@]5(CC)C=CCN6CC[C@]43[C@@H]65)C2)C1 [VINDESINE]
Not Active: IC50 [1] | Ki [1] | IC50 (B2 bradykinin receptor) | IC50 (Calcitonin receptor) | IC50 [2] | Ki [2] | IC50 [3] | IC50 (Vasopressin V1a receptor) | IC50 [4] | Ki [4] | IC50 (Estrogen receptor)

CCN(C(C)=O)c1cccc(-c2ccnc3c(C#N)cnn23)c1 [ZALEPLON]
Not Active: IC50 [1] | Ki [1] | IC50 (B2 bradykinin receptor) | IC50 (Calcitonin receptor) | IC50 [2] | Ki [2] | IC50 [3] | IC50 (Vasopressin V1a receptor) | IC50 [4] | Ki [4] | IC50 (Estrogen receptor)

COBALTOUS CHLORIDE
Not Active: IC50 [1] | Ki [1] | IC50 (B2 bradykinin receptor) | Ki (B2 bradykinin receptor) | IC50 (Calcitonin receptor) | Ki (Calcitonin receptor) | IC50 [2] | Ki [2] | IC50 [3] | Ki [3] | IC50 (Vasopressin V1a receptor) | Ki (Vasopressin V1a receptor) | IC50 [4] | Ki [4] | IC50 (Estrogen receptor) | Ki (Estrogen receptor)

COLISTIN
Not Active: IC50 [1] | Ki [1] | IC50 (B2 bradykinin receptor) | Ki (B2 bradykinin receptor) | IC50 (Calcitonin receptor) | Ki (Calcitonin receptor) | IC50 [2] | Ki [2] | IC50 [3] | Ki [3] | IC50 (Vasopressin V1a receptor) | Ki (Vasopressin V1a receptor) | IC50 [4] | Ki [4] | IC50 (Estrogen receptor) | Ki (Estrogen receptor)
